Here are results for 26 compounds from patent US9193719B2, “1,2,4-triazol-5-ones and analogs exhibiting anti-cancer and anti-proliferative activities” (Deciphera Pharmaceuticals, LLC, priority 2013, dated 2015).

The term IC50 denotes the midpoint of a concentration-inhibition curve.

For assay [1], the target named is T1, unphosphorylated c-KIT kinase (uKIT, Seq. ID no. 2) (Homo sapiens, UniProt P10721).
T1 construct: uKit with N-terminal GST fusion used for screening
Kind of assay: uKit kinase enzymatic assay (pyruvate kinase/lactate dehydrogenase coupled). It is filed as biochemical. As to conditions: ATP 2000 μM, rate 3 to 4 h. The method in brief:
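Coupled pyruvate kinase/lactate dehydrogenase readout of ADP, following NADH oxidation at A340 continuously for 4 h at 30 °C. Mix: 12 nM unphosphorylated KIT, 1 mg/mL polyE4Y, 2000 μM ATP, 10 mM MgCl2, 90 mM Tris pH 7.5, 0.2% octyl-glucoside, 1% DMSO. IC50 from % inhibition of rates at 3–4 h.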

The target of assay [2] is T2, unphosphorylated PDGFRβ kinase (uPDGFRβ, Seq. ID No. 3) (Homo sapiens, UniProt P09619).
T2 construct: purchased DeCode
T2 sequence (P09619 557-1106): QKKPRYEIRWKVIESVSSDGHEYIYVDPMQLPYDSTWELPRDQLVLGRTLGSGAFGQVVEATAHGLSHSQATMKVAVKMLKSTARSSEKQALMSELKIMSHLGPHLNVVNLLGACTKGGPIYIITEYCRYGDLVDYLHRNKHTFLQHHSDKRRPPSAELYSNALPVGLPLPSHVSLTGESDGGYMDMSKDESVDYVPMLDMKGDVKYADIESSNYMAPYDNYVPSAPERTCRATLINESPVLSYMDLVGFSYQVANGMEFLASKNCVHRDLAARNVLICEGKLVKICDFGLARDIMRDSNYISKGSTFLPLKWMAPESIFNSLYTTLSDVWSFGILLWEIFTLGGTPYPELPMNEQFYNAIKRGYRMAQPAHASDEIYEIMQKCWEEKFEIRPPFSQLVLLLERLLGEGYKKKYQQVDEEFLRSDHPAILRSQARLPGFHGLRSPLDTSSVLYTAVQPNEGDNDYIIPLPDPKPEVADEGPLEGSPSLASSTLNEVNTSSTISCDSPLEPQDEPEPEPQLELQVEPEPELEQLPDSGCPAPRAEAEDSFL
As to the kind of experiment: uPDGFRβ kinase enzymatic assay (pyruvate kinase/lactate dehydrogenase coupled). It is filed as biochemical. As to conditions: ATP 500 μM, rate 1.5 to 2.5 h. The method in brief: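 Unphosphorylated PDGFRβ (15.7 nM) with 500 μM ATP and poly E4Y (2.5 mg/mL) in Tris pH 7.5, 0.2% octyl-glucoside, 1% DMSO; ADP coupled via PK/LDH to NADH oxidation at A340, read continuously 4 h at 30 °C. Rates from 1.5–2.5 h window versus no-compound control gave IC50.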

T1 sequence (P10721 with tags, fused parts or gaps): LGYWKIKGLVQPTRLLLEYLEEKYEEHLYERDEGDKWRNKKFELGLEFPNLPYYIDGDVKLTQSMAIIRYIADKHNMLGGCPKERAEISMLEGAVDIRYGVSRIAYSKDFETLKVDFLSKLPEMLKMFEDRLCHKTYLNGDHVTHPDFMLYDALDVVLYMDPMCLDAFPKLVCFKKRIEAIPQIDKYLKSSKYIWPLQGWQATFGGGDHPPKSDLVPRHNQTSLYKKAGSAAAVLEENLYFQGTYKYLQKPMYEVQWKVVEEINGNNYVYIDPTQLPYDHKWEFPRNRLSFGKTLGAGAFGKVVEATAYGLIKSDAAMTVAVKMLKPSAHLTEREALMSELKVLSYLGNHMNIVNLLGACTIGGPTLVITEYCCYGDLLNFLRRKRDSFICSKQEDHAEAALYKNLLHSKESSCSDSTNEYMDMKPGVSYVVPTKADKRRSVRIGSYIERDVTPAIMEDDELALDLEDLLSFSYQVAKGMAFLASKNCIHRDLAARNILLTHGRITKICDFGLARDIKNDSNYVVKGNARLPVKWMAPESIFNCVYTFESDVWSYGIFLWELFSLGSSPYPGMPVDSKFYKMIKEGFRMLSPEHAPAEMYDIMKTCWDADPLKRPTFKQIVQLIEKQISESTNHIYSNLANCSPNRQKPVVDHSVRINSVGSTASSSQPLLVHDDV

Turning to `Cc1nc(-n2nc(C3(C(F)(F)F)CCC3)[nH]c2=O)ccc1Oc1ccnc(-c2cnn(C)c2)c1` [Example 43, 1-(6-methyl-5-((2-(1-methyl-1H-pyrazol-4-yl)pyridin-4-yl)oxy)pyridin-2-yl)-3-(1-(trifluoromethyl)cyclobutyl)-1H-1,2,4-triazol-5(4H)-one], the IC50 in assay [1] was in the range of 10 to 100 nM; in assay [2], 100 to 1000 nM.
Taken in the same sequence, the figures for `Cc1nc(-n2nc(C(C)C)[nH]c2=O)ccc1Oc1ccnc(-c2cnn(C)c2)c1` [Example 5, 3-isopropyl-1-(6-methyl-5-((2-(1-methyl-1H-pyrazol-4-yl)pyridin-4-yl)oxy)pyridin-2-yl)-1H-1,2,4-triazol-5(4H)-one] were 100 to 1000 nM and more than 1000 nM.
In the same order, the values of `COC(C)(C)c1nn(-c2ccc(Oc3ccnc(-c4cnn(C)c4)c3)c(C)n2)c(=O)[nH]1` [Example 16, 3-(2-methoxypropan-2-yl)-1-(6-methyl-5-((2-(1-methyl-1H-pyrazol-4-yl)pyridin-4-yl)oxy)pyridin-2-yl)-1H-1,2,4-triazol-5(4H)-one] are more than 1000 nM and more than 1000 nM.
On to `Cc1nc(-n2nc(Cc3ccccc3)[nH]c2=O)ccc1Oc1ccnc(-c2cnn(C)c2)c1` [Example 2, 3-benzyl-1-(6-methyl-5-((2-(1-methyl-1H-pyrazol-4-yl)pyridin-4-yl)oxy)pyridin-2-yl)-1H-1,2,4-triazol-5(4H)-one], for which the IC50 in assay [1] and in assay [2] was 100 to 1000 nM in each case.
`Cc1cc(-n2nc(C(C)(C)C)[nH]c2=O)nc(C)c1Oc1ccnc(-c2cnn(C)c2)c1` [Example 33, 3-(tert-butyl)-1-(4,6-dimethyl-5-((2-(1-methyl-1H-pyrazol-4-yl)pyridin-4-yl)oxy)pyridin-2-yl)-1H-1,2,4-triazol-5(4H)-one]: the IC50 in assay [1] and in assay [2] was 100 to 1000 nM throughout.
On to `Cc1nc(-n2nc(C(C)(C)C)[nH]c2=O)ccc1Oc1ccnc(-c2ccc(C3CCN(C)CC3)cc2)c1` [Example 14, 3-(tert-butyl)-1-(6-methyl-5-((2-(4-(1-methylpiperidin-4-yl)phenyl)pyridin-4-yl)oxy)pyridin-2-yl)-1H-1,2,4-triazol-5(4H)-one], for which the IC50 in assay [1] was 10 to 100 nM; in assay [2], more than 1000 nM.
In the same order, the values of `Cc1nc(-n2nc(C3CCOCC3)[nH]c2=O)ccc1Oc1ccnc(-c2cnn(C)c2)c1` [Example 20, 1-(6-methyl-5-((2-(1-methyl-1H-pyrazol-4-yl)pyridin-4-yl)oxy)pyridin-2-yl)-3-(tetrahydro-2H-pyran-4-yl)-1H-1,2,4-triazol-5(4H)-one] are 100 to 1000 nM and more than 1000 nM.
In the same order, the values of `Cc1nc(-n2nc(C(C)(C)C)[nH]c2=O)ccc1Oc1ccnc(NC(=O)N(C)C)c1` [Example 30, 3-(4-((6-(3-(tert-butyl)-5-oxo-4,5-dihydro-1H-1,2,4-triazol-1-yl)-2-methylpyridin-3-yl)oxy)pyridin-2-yl)-1,1-dimethylurea] are more than 1000 nM and more than 1000 nM.
Regarding `CCC(C)(C)c1nn(-c2ccc(Oc3ccnc(-c4cnn(C)c4)c3)c(C)n2)c(=O)[nH]1` [Example 25, 1-(6-methyl-5-((2-(1-methyl-1H-pyrazol-4-yl)pyridin-4-yl)oxy)pyridin-2-yl)-3-(tert-pentyl)-1H-1,2,4-triazol-5(4H)-one], the values for the IC50 in assay [1] and in assay [2] were 10 to 100 nM and more than 1000 nM, respectively.
In the case of `Cc1nc(-n2nc(C3CCCCC3)[nH]c2=O)ccc1Oc1ccnc(-c2cnn(C)c2)c1` [Example 6, 3-cyclohexyl-1-(6-methyl-5-((2-(1-methyl-1H-pyrazol-4-yl)pyridin-4-yl)oxy)pyridin-2-yl)-1H-1,2,4-triazol-5(4H)-one], the IC50 in assay [1] was 10 to 100 nM; in assay [2] it was 100 to 1000 nM.
Turning to `Cc1nc(-n2nc(C3(C)CC3)[nH]c2=O)ccc1Oc1ccnc(-c2cnn(C)c2)c1` [Example 27, 1-(6-methyl-5-((2-(1-methyl-1H-pyrazol-4-yl)pyridin-4-yl)oxy)pyridin-2-yl)-3-(1-methylcyclopropyl)-1H-1,2,4-triazol-5(4H)-one], the results for the IC50 in assay [1] and in assay [2] were 100 to 1000 nM and more than 1000 nM, respectively.
In the same order, the values of `Cc1cc(-n2nc(C(C)(C)C)[nH]c2=O)ncc1Oc1ccnc(-c2cnn(C)c2)c1` [Example 31, 3-(tert-butyl)-1-(4-methyl-5-((2-(1-methyl-1H-pyrazol-4-yl)pyridin-4-yl)oxy)pyridin-2-yl)-1H-1,2,4-triazol-5(4H)-one] are 10 to 100 nM and 100 to 1000 nM.
Taken in the same sequence, the figures for `COCC(C)(C)c1nn(-c2ccc(Oc3ccnc(-c4cnn(C)c4)c3)c(C)n2)c(=O)[nH]1` [Example 46, 3-(1-methoxy-2-methylpropan-2-yl)-1-(6-methyl-5-((2-(1-methyl-1H-pyrazol-4-yl)pyridin-4-yl)oxy)pyridin-2-yl)-1H-1,2,4-triazol-5(4H)-one] were 100 to 1000 nM and more than 1000 nM.
Taken in the same sequence, the figures for `Cc1nc(-n2nc(C(C)(C)C)oc2=O)ccc1Oc1ccnc(-c2cnn(C)c2)c1` [Example 49, 5-(tert-butyl)-3-(6-methyl-5-((2-(1-methyl-1H-pyrazol-4-yl)pyridin-4-yl)oxy)pyridin-2-yl)-1,3,4-oxadiazol-2(3H)-one] were 100 to 1000 nM and more than 1000 nM.
Consider `Cc1nc(-n2nc(Cc3ccc(F)cc3)[nH]c2=O)ccc1Oc1ccnc(-c2cnn(C)c2)c1` [Example 1, 3-(4-fluorobenzyl)-1-(6-methyl-5-((2-(1-methyl-1H-pyrazol-4-yl)pyridin-4-yl)oxy)pyridin-2-yl)-1H-1,2,4-triazol-5(4H)-one], for which the IC50 in assay [1] and in assay [2] was 100 to 1000 nM in each case.
Take `Cc1nc(-n2nc(C(C)(C)C)[nH]c2=O)ccc1Oc1ccnc(-c2cnco2)c1` [Example 39, 3-(tert-butyl)-1-(6-methyl-5-((2-(oxazol-5-yl)pyridin-4-yl)oxy)pyridin-2-yl)-1H-1,2,4-triazol-5(4H)-one]: the IC50 in assay [1] and in assay [2] was more than 1000 nM each time.
For `Cc1nc(-n2nc(C(C)(C)C)[nH]c2=O)ccc1Oc1cc(-c2cnn(C)c2)ncn1` [Example 47, 3-(tert-butyl)-1-(6-methyl-5-((6-(1-methyl-1H-pyrazol-4-yl)pyrimidin-4-yl)oxy)pyridin-2-yl)-1H-1,2,4-triazol-5(4H)-one], the IC50 in assay [1] and in assay [2] was more than 1000 nM each time.
Turning to `Cc1nc(-n2nc(CC(C)(C)C)[nH]c2=O)ccc1Oc1ccnc(-c2cnn(C)c2)c1` [Example 36, 1-(6-methyl-5-((2-(1-methyl-1H-pyrazol-4-yl)pyridin-4-yl)oxy)pyridin-2-yl)-3-neopentyl-1H-1,2,4-triazol-5(4H)-one], the IC50 in assay [1] lay within 10 to 100 nM; in assay [2], 100 to 1000 nM.
Taken in the same sequence, the figures for `Cc1cc(-c2cc(Oc3ccc(-n4nc(C(C)(C)C)[nH]c4=O)nc3C)ccn2)ccn1` [Example 9, 3-(tert-butyl)-1-(6-methyl-5-((2′-methyl-[2,4′-bipyridin]-4-yl)oxy)pyridin-2-yl)-1H-1,2,4-triazol-5(4H)-one] were 100 to 1000 nM and more than 1000 nM.
Consider `CCn1cc(-c2cc(Oc3ccc(-n4nc(C(C)(C)C)[nH]c4=O)nc3C)ccn2)cn1` [Example 38, 3-(tert-butyl)-1-(5-((2-(1-ethyl-1H-pyrazol-4-yl)pyridin-4-yl)oxy)-6-methylpyridin-2-yl)-1H-1,2,4-triazol-5(4H)-one], for which the IC50 in assay [1] and in assay [2] was more than 1000 nM in each case.
For `Cn1cc(-c2cc(Oc3ccc(-n4nc(Cc5ccc(F)cc5)[nH]c4=O)nc3)ccn2)cn1` [Example 3, 3-(4-fluorobenzyl)-1-(5-((2-(1-methyl-1H-pyrazol-4-yl)pyridin-4-yl)oxy)pyridin-2-yl)-1H-1,2,4-triazol-5(4H)-one], the IC50 in assay [1] and in assay [2] was 10 to 100 nM throughout.
`Cn1cc(-c2cc(Oc3ccc(-n4nc(C(C)(C)C)[nH]c4=O)nc3)ccn2)cn1` [Example 4, 3-(tert-butyl)-1-(5-((2-(1-methyl-1H-pyrazol-4-yl)pyridin-4-yl)oxy)pyridin-2-yl)-1H-1,2,4-triazol-5(4H)-one]: the IC50 in assay [1] is 10 to 100 nM; in assay [2], more than 1000 nM.
With `Cc1nc(-n2nc(C(C)(C)C)n(C)c2=O)ccc1Oc1ccnc(-c2cnn(C)c2)c1` [Example 13, 3-(tert-butyl)-4-methyl-1-(6-methyl-5-((2-(1-methyl-1H-pyrazol-4-yl)pyridin-4-yl)oxy)pyridin-2-yl)-1H-1,2,4-triazol-5(4H)-one], the IC50 in assay [1] is 100 to 1000 nM; in assay [2], more than 1000 nM.
Taken in the same sequence, the figures for `Cc1nc(-n2nc(CC(C)C)[nH]c2=O)ccc1Oc1ccnc(-c2cnn(C)c2)c1` [Example 22, 3-isobutyl-1-(6-methyl-5-((2-(1-methyl-1H-pyrazol-4-yl)pyridin-4-yl)oxy)pyridin-2-yl)-1H-1,2,4-triazol-5(4H)-one] were 10 to 100 nM and more than 1000 nM.
Taken in the same sequence, the figures for `Cc1ccc(-c2cc(Oc3ccc(-n4nc(C(C)(C)C)[nH]c4=O)nc3C)ccn2)cn1` [Example 10, 3-(tert-butyl)-1-(6-methyl-5-((6′-methyl-[2,3′-bipyridin]-4-yl)oxy)pyridin-2-yl)-1H-1,2,4-triazol-5(4H)-one] were more than 1000 nM and more than 1000 nM.
In the same order, the values of `Cc1nc(-n2cc(C(C)(C)C)[nH]c2=O)ccc1Oc1ccnc(-c2cnn(C)c2)c1` [Example 48, 4-(tert-butyl)-1-(6-methyl-5-((2-(1-methyl-1H-pyrazol-4-yl)pyridin-4-yl)oxy)pyridin-2-yl)-1H-imidazol-2(3H)-one] are more than 1000 nM and more than 1000 nM.
